Assays:
Type in all cases: cell-based
alpha cells = experiment: Alpha cell numbers in cultured dissociated rat islet cells; conditions: HC-containing medium; control 40±3%
Source text: We next tested cell type-specificity of HC-induced proliferation by using dissociated rat islet cells containing 15-20% alpha cells and 10-15% other cell types. […] Non-endocrine pancreatic cells were virtually undetectable on day 15, presumably died out due to the serum-free culture conditions.

rat beta cells [1] = experiment: Beta cell DNA synthesis/proliferation by EdU (and BrdU) incorporation, incl. LOPAC screen
Summary of the method: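 Sorted beta cells on 804G matrix were cultured at 37° C in Ham F10 with 50 μM IBMX and 10 mM glucose. In the LOPAC screen, compounds were added on day 1, with EdU (10 μM) from days 3–6. Imaged % EdU-positive cells defined hits at a Z-score above three SD.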

rat beta cells [2] = experiment: Number of living beta cells in culture (Hoechst 33342/propidium iodide whole-well imaging counts; expansion assay)
Experimental: Beta cells were FACS-purified from islet-cell enriched suspensions (Pipeleers et al., 1985) prepared from neonatal (2-3 days-old) and adolescent or adult (8 or 40-week-old, male) Wistar rats (Janvier Bioservices, France); their purity was, respectively 70-75% and over 90%. Sorted cells were counted in a hemocytometer, seeded (day 0) and cultured for up to 15 days in serum-free Ham's-F10 medium at 5, 10 or 20 mmol/l glucose, supplemented with 2 mmol/l L-glutamine, 50 μM 3-isobutyl-1-methylxanthine, 0.5% Albumax-I, penicillin (100 U/ml) and streptomycin (0.1 mg/ml). The 10 mmol/l glucose condition is known to maintain beta cell survival over 9-days (Ling et al., 1994; Ling and Pipeleers, 1994). Medium and cells were retrieved after selected culture periods and assayed for insulin content; data were expressed as a function of the number of living beta cells that was determined in parallel wells.
On day 1, 9 and 15 of culture, total numbers of living beta cells per well were determined by semi-automatic cell count, after Hoechst 33342 (Ho) and propidium iodide (PI) staining. Numbers of living beta cells were obtained by subtracting the PI-positive cell numbers from the Ho-positive cell numbers, and correcting for the percent insulin-negative cells, as determined following insulin-immunofluorescence staining. They were expressed as percent of the numbers on day 1. Each condition was also evaluated for increases in the percentage of proliferating beta cells (incorporating the thymidine-analogue 5-ethynyl-2′-deoxyuridine, EdU; 100 μmol/l). To detect beta cells that underwent two successive cycles, cells were sequentially exposed to two different thymidine-analogs, first EdU from day 3 to 6, and then BrdU (100 μmol/l) from day 7 to 10, with a 24-hour label-free period in between. EdU-positive (EdU^+) nuclei were detected with the Click-iT Assay kit (Invitrogen), while BrdU-positive (BrdU^+) nuclei were identified with anti-BrdU antibody.
Absolute number of cells was determined by whole-well imaging using the BD-PathwayBioimager855 (BD-Biosciences). IPLab and AttoVision software packages (BD-Biosciences) were used for image background subtraction, segmentation and quantification.
Experimental procedures for isolation of beta cells from neonatal (2-3 days old) and adult (8 or 40 week old, male) Wistar rats (Janvier Bioservices, France) and analysis of their number, viability and proliferation activity in culture have been described before (Assefa et al., 2014). Sorted beta cells were seeded in 804G matrix-coated plates (designated as day 0) and the numbers and viability of seeded cells at the start of all experiments were determined on day 1 (24 h after seeding). The cells were cultured in control medium, which is a serum-free Ham's F10 medium supplemented with 2 mM L-glutamine, 50 μM 3-isobutyl-1-methylxanthine, 0.5% Albumax I, penicillin (100 U/ml), streptomycin (0.1 mg/ml) and, unless indicated otherwise, 10 mM glucose.
Sorted beta cells were seeded in 384-well or 6-well plates coated with 804G matrix, and kept in culture for up to 15 days at 37° C. 5% CO2 using Ham F10 supplemented with 1 mM L-glutamine, 0.1 mg/ml streptomycin, 0.075 mg/ml penicillin, 50 μM of isobutyl-1-methylxanthine (IBMX) at 10 mM D-glucose with and without synthetic GCs (6 methyl-prednisolone (6MP), dexamethasone (DEX), GR-modulators (compound A (CPA), mifepristone (MIF), and NFκB inhibitors (JSH-23 en Bay11-7085). Total cell number and beta cell viability was evaluated after incubation with Hoechst 33342 and propidium iodide. All chemicals were from Sigma Life Sciences or Merck. Quantification of cell numbers and analysis of beta-cell viability was done using the Pathway Bioimager (BD Biosciences) and using IPlab and Attovision software for background subtraction as described prior (Assefa et al., 2014).

INS1 832/13 cell line = experiment: Proliferation of INS1 832/13 cell line in serum-free medium; conditions: serum-free culture medium; data not shown

`C[C@]12CCC(=O)C=C1CC[C@@H]1[C@@H]2[C@@H](O)C[C@@]2(C)[C@H]1CC[C@]2(O)C(=O)CO` [Hydrocortisone, hydrocortisone] was tested, and the “alpha cell numbers after 15-day culture (% of the starting level)” value (alpha cells) was 57±1%, the “Percent EdU+ cells” value (rat beta cells [1]; LOPAC screen at 1 μM, adult rat beta cells, EdU day 3 to 6, control medium 5.6) was 28.0% and the Z-Score (rat beta cells [1]; LOPAC screen at 1 μM, adult rat beta cells, EdU day 3 to 6, hit cut-off three standard deviations) was 5.4. The “final concentration of optimal potency (dose-response studies)” value (rat beta cells [1]; survival and proliferation of rat beta cells, data not shown) was 1 µM, the “Number of Living Cells on Day 15 (% of Day 1)” value (“Number … (% of Day 1)” for short) (rat beta cells [2]; 9 days, HC, 6 days, control) was 168.1 ± 6.8 % of Day 1 and the “Number … (% of Day 1)” value (rat beta cells [2]; 15 days, HC (Table 7), control 102.5 ± 6.1) was 173.9 ± 7.1 % of Day 1. The “Number … (% of Day 1)” value (rat beta cells [2]; HC alone, 15 days (Table 6)) was 156 ± 4 % of Day 1, the “Number … (% of Day 1)” value (rat beta cells [2]; HC, glucose 7.5 high-responsive cells, control 99.0 ± 1.5) was 182.0 ± 4.9 % of Day 1 and the “Number … (% of Day 1)” value (rat beta cells [2]; HC, glucose 7.5 low-responsive cells, control 94.0 ± 9.2) was 117.3 ± 5.2 % of Day 1. For the same compound, the “Number … (% of Day 1)” value (rat beta cells [2]; HC, mixed beta cell population, control 110.7 ± 5.0) was 169.0 ± 9.3 % of Day 1, the “increase in absolute number of living beta cells in culture” value (rat beta cells [2]; two-weeks culture) was “near population doubling” and the “proliferation of INS1 832/13 cell line” value (INS1 832/13 cell line) was “does not induce the proliferation”.
